Legend:
[1] = system: ulcerogenic effect induced by certain non-steriodal and steroidal anti-inflammatory agents; conditions: rats, concomitant oral administration; cited from earlier work
[2] = system: ADP-Induced platelet aggregation; test: Inhibition of ADP-induced platelet aggregation, in vitro (platelet rich plasma); format: cell-based; conditions: Rattus norvegicus, compound preincubated 1 minute, read-out: Results (IC50 (Molar))
Procedure: Inhibition of ADP-Induced platelet aggregation, in vitro.
Aggregation was determined using a Payton Dual Channel Aggregation Module. A Riker-Denshi recorder was used fo recording the aggregation curves.
The addition of ADP to platelet-rich plasma induces platelet aggregation.
After the PRP fraction was removed, the remainder was spun at 900×g for 15 mins. to obtain platelet poor plasma (PPP) (1800 RPM in IEC PR 6000). The number of platelets per ml PRP is determined by counting a 50 μl aliquot of PRP in a Coutter ZBI counter and channelyzer Model C-1000.
PRP is diluted with PPP 1:2 to obtain a count of approx. 25000 on the screen or 10^9 platelets/ml PRP to evaluate the anti-aggregating agent. The module was standardized with an aliquot of PPP and that of diluted PRP.
The aggregating agent used is ADP prepared as follows:
Prostacyclin is used as the standard of antiaggregatory activity for determining the potency of compounds tested. A 10^2 M solution (to give a starting concentration of 10^-4 M when 4 μL is added to 400 μL PRP) is diluted serially to obtain solutions with final concentrations of 10^-6, 10^-7, 10^-8, 10^-9 M.
Determine the dose of ADP which on a standard curve would be on the linear portion and allow reversal of the aggregation curve.
Determine the PGI2 standard curve of percentage inhibition of aggregation. Use saline in control cuvette to compare the extent of inhibition by PGI2 are represented by the depth of the aggregation curve. Allow the PRP to preincubate for approximately one minute prior to the addition of prostacyclin and another minute with PGI2 prior to the addition of ADP.
The % inhibition is plotted against prostacyclin dose on semilog paper.
The test compound is added to PRP and preincubated for 1 minute prior to ADP administration.

[3] = physiological pH; cited from earlier work
platelet aggregation = conditions: background, cited from earlier work

Row | IC50 [2] | SMILES | ulcerogenic effect induced by anti-inflammatory agents [1] | also measured
1 |  | CCCCC[C@H](O)/C=C/[C@H]1[C@H](O)CC(=O)[C@@H]1CCCCCCC(=O)O [PGE1] | inhibited | 
2 |  | CCCCC[C@H](O)CC[C@H]1[C@H](O)CC(=O)[C@@H]1CCCCCCC(=O)O [13, 14-dihydro-PGE1] | inhibited | 
3 | 1000 nM | CCCCC[C@H](O)/C=C/[C@@H]1[C@H]2C/C(=C/COCC(=O)OC(C)(C)C)O[C@H]2C[C@H]1O (relative stereo) [3-oxa prostacyclin Tert-butyl ester, 1,1-Dimethylethyl(3aS,3aα,6aα)[2-[hexahydro-5β-hydroxy-4α-(3S*-hydroxy-1E-octenyl)-2H-cyclopenta-[b]furan-2Z-ylidene]ethoxy]acetate] |  | 
4 |  | CC/C=C\C[C@H](O)/C=C/[C@H]1[C@H](O)CC(=O)[C@@H]1C/C=C\CCCC(=O)O [PGE3] | inhibited | 
5 | 4000 nM | CCCCC[C@H](O)/C=C/[C@@H]1[C@H]2C=C(C(F)COCC(=O)OC(C)(C)C)O[C@H]2C[C@H]1O (relative stereo) [1,1-Dimethylethyl(3aS,3aα,6aα)[2-fluoro-2-[4,5,6,6aα-tetrahyro-5β-hydroxy-4α-(3S*-hydroxy-1E-octenyl)-3aS,3aαH,-cyclopenta[b]furanyl]ethoxy]acetate] |  | 
6 |  | CCCCC[C@H](O)/C=C/[C@H]1[C@H](O)CC(=O)[C@@H]1C/C=C\CCCC(=O)O [PGE2] | inhibited | 
7 | 6 nM | CCCCC[C@H](O)/C=C/[C@@H]1[C@H]2C/C(=C/CCCC(=O)O)O[C@H]2C[C@H]1O [Prostacyclin, (5Z)-9-deoxy-6,9α-epoxy-Δ^5 -PGF1] |  | half period of its activity [3]: only about several minutes; duration of antiplatelet aggregation effect (platelet aggregation): short lived; hypotensive effects (platelet aggregation): often affords unwanted hypotensive effects; doses required for platelet aggregation inhibiting action and antihypertensive action (platelet aggregation; selectivity of action): almost equal to each other
